Source: ChEMBL document CHEMBL5053535, “Design, synthesis and biological evaluation of novel aminopyrazole- and 7-azaindole-based Nek1 inhibitors and their effects on zebrafish kidney development” (Bioorg Med Chem Lett, 2021)
Values after ≈ are worked out from the molar mass of the structure shown.

Experiments:
[1] = Toxicity in zebra fish embryos assessed as lethality at 1.5 uM measured after 24 hrs relative to control; type: organism-based, Danio rerio; conditions: zebrafish, in vivo, read-out: Activity
Danio rerio [2] = species on record: Danio rerio; test: Toxicity in zebra fish embryos assessed as adverse effects at >0.1 uM measured over 96 hrs; type: organism-based; conditions: zebrafish, in vivo
Danio rerio [3] = species on record: Danio rerio; test: Toxicity in zebra fish embryos assessed as enlarged yolk sac at 0.1 uM measured after 96 hrs; type: organism-based; conditions: zebrafish, in vivo
Danio rerio [4] = species on record: Danio rerio; test: Toxicity in zebra fish embryos assessed as curved tail at 0.1 uM measured after 96 hrs; type: organism-based; conditions: zebrafish, in vivo
Danio rerio [5] = species on record: Danio rerio; test: Toxicity in zebra fish embryos assessed as phenotype changes at 0.01 to 2.5 uM measured after 96 hrs; type: organism-based; conditions: zebrafish, in vivo, dose 0.01-2.5 µM
Danio rerio [6] = species on record: Danio rerio; test: (§1) Toxicity in wild type zebra fish model of polycystic kidney disease assessed as increase in fluorescence intensity at 0.1 uM incubated for 48 hrs in presence of N-phenyl thiourea further treated with PT-yellow for 20 mins followed by dye washout and incubated in solution containing compound for 96 hrs by fluorescence imaging analysis; type: organism-based; conditions: zebrafish, in vivo
[7] = target: T1, Serine/threonine-protein kinase Nek1 (Homo sapiens) (UniProt Q96PY6); test: Inhibition of human NEK1 using myelin basic protein as substrate assessed as residual activity at 1 uM in presence of [gamma-33P]-ATP by radiometric hotspot kinase assay relative to control
T1 sequence (whole entry): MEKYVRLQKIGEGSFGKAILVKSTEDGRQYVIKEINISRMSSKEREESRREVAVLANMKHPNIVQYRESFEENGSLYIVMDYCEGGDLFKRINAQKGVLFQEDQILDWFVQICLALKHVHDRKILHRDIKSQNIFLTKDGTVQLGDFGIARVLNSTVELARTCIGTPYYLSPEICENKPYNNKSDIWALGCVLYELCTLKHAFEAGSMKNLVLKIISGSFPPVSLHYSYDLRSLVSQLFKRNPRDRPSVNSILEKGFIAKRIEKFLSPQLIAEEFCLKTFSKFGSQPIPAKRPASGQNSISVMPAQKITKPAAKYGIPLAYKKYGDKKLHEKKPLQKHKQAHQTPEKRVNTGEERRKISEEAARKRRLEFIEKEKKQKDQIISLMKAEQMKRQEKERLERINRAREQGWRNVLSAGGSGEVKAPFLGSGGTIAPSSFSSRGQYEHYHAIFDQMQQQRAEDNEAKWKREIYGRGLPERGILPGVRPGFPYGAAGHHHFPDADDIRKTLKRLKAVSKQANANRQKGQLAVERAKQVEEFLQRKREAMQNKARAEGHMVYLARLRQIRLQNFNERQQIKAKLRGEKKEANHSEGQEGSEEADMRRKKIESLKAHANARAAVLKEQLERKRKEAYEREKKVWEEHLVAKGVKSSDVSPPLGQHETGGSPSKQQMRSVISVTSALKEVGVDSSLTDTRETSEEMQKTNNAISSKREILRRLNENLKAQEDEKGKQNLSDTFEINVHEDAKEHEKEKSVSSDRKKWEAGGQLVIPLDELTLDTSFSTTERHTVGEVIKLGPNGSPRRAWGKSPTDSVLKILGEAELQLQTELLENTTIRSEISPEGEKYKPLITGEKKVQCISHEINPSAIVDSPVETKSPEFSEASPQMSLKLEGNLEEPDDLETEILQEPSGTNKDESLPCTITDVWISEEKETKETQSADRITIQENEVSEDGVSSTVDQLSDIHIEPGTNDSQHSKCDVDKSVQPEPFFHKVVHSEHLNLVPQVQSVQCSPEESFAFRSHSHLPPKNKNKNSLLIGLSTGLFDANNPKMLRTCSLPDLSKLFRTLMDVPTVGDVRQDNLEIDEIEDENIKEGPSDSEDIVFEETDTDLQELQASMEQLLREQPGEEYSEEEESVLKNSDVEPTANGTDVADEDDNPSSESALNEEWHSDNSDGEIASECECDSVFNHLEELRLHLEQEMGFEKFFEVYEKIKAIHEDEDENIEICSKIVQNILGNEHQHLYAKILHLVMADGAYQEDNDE

[8] = target: T2, Serine/threonine-protein kinase Nek1 (Homo sapiens, UniProt Q96PY6); test: Inhibition of human NEK1 using myelin basic protein as substrate assessed as residual activity in presence of [gamma-33P]-ATP by radiometric hotspot kinase assay relative to control
T2 sequence (Q96PY6 whole entry): T1 sequence (whole entry)

[9] = target: Cyclin-dependent kinase 2/cyclin E1 (Homo sapiens) (UniProt P24864+P24941); test: (§2) Inhibition of human recombinant full length C-terminal His6 tagged CDK2/ N-terminal GST-tagged Cyclin E expressed in baculovirus infected Sf21 insect cells using histone H1 as substrate assessed as residual activity at 1 uM pretreated for 20 mins followed by [33P]-ATP addition measured after 120 mins by radiometric hotspot kinase assay relative to control; conditions: time 140.0 min
[10] = target: T3, Serine/threonine-protein kinase Chk1 (Homo sapiens) (UniProt O14757); test: as §2, with “N-terminal His” for “C-terminal His6”, “CHK1” for “CDK2/ N-terminal GST-tagged Cyclin E”, “CHKtide” for “histone H1”; conditions: time 140.0 min
T3 sequence (whole entry): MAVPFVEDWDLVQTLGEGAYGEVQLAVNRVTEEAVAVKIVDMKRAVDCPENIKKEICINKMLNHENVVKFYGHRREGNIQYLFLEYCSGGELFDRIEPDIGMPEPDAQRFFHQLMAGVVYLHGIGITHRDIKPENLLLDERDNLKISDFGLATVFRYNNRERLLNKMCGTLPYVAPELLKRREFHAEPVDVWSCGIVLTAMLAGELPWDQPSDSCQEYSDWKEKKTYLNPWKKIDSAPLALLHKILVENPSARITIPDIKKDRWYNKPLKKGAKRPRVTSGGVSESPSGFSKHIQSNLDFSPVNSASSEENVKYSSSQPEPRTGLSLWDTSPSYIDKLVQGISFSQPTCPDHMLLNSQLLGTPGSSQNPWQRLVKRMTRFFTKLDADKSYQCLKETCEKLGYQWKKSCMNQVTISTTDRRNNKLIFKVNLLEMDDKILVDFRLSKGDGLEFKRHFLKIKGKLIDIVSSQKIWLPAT

[11] = target: Vascular endothelial growth factor receptor 2 (Homo sapiens) (UniProt P35968); test: Inhibition of human recombinant C-terminal His6 tagged VEGFR2 (789 to 1356 residues) expressed in baculovirus infected insect cells assessed as residual activity at 1 uM pretreated for 20 mins followed by [33P]-ATP addition measured after 120 mins by radiometric hotspot kinase assay relative to control; conditions: time 140.0 min
[12] = target: T4, Serine/threonine-protein kinase Nek5 (Homo sapiens) (UniProt Q6P3R8); test: Inhibition of human recombinant NEK5 assessed as residual activity at 1 uM pretreated for 20 mins followed by [33P]-ATP addition measured after 120 mins by radiometric hotspot kinase assay relative to control; conditions: time 140.0 min
T4 sequence (whole entry): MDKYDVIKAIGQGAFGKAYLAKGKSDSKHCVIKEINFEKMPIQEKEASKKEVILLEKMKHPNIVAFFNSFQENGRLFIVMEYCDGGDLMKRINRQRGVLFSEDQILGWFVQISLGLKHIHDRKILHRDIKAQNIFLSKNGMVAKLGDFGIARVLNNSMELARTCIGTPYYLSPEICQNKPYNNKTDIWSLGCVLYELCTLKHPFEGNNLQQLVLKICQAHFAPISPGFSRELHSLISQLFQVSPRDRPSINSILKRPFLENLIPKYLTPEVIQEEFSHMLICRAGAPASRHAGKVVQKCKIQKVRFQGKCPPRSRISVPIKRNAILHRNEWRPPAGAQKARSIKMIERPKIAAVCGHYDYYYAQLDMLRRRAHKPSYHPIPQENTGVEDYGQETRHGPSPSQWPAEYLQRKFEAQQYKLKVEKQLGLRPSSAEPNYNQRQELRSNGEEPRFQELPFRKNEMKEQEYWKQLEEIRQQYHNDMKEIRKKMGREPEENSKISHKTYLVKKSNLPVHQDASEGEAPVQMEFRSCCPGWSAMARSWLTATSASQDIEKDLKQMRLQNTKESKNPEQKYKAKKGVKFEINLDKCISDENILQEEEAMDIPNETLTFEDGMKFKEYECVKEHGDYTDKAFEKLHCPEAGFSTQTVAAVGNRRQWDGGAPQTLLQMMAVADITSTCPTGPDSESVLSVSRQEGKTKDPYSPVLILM

[13] = target: Wee1-like protein kinase (Homo sapiens) (UniProt P30291); test: Inhibition of human recombinant full length WEE1 expressed in insect cells using MBP as substrate assessed as residual activity at 1 uM pretreated for 20 mins followed by [33P]-ATP addition measured after 120 mins by radiometric hotspot kinase assay relative to control; conditions: time 140.0 min
[14] = Solubility of the compound in E3 medium with 0.2% DMSO by DAD-HPLC based shake flask method; type: physicochemical
[15] = Solubility of the compound in DMEM with 1% DMSO by DAD-HPLC based shake flask method; type: physicochemical
[16] = Stability of the compound in DMEM measured after 48 hrs by DAD-HPLC method; type: physicochemical; conditions: read-out: Stability
Danio rerio [17] = species on record: Danio rerio; test: Toxicity in zebra fish embryos assessed as overall survival at 0.01 to 2.5 uM measured after 96 hrs; type: organism-based; conditions: zebrafish, in vivo, dose 0.01-2.5 µM
Danio rerio [18] = species on record: Danio rerio; test: as §1, with “2.5” for “0.1”; type: organism-based; conditions: zebrafish, in vivo
Danio rerio [19] = species on record: Danio rerio; test: as §1, with “minor tubular volume expansion” for “increase in fluorescence intensity”, “2.5” for “0.1”; type: organism-based; conditions: zebrafish, in vivo

Sequence of Wee1-like protein kinase (Homo sapiens) (P30291 whole entry, looked up): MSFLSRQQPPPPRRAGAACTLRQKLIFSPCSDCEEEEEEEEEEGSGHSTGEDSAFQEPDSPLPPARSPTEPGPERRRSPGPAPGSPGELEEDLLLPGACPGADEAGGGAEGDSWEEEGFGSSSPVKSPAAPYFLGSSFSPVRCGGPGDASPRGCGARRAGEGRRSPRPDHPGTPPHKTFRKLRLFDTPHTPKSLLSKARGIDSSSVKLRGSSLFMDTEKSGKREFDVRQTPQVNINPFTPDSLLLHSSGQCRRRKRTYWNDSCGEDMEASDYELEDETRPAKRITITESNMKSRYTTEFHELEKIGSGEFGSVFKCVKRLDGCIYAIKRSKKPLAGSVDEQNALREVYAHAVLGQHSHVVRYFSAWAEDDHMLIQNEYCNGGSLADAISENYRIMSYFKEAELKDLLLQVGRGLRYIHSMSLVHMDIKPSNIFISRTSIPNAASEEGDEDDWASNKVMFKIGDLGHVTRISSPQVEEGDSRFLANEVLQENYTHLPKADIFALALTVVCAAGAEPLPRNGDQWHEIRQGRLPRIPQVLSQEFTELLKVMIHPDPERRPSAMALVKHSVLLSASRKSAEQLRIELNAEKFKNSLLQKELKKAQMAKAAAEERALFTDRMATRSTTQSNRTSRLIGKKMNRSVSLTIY
Sequence of Vascular endothelial growth factor receptor 2 (Homo sapiens) (P35968 whole entry, the tested form may be a part): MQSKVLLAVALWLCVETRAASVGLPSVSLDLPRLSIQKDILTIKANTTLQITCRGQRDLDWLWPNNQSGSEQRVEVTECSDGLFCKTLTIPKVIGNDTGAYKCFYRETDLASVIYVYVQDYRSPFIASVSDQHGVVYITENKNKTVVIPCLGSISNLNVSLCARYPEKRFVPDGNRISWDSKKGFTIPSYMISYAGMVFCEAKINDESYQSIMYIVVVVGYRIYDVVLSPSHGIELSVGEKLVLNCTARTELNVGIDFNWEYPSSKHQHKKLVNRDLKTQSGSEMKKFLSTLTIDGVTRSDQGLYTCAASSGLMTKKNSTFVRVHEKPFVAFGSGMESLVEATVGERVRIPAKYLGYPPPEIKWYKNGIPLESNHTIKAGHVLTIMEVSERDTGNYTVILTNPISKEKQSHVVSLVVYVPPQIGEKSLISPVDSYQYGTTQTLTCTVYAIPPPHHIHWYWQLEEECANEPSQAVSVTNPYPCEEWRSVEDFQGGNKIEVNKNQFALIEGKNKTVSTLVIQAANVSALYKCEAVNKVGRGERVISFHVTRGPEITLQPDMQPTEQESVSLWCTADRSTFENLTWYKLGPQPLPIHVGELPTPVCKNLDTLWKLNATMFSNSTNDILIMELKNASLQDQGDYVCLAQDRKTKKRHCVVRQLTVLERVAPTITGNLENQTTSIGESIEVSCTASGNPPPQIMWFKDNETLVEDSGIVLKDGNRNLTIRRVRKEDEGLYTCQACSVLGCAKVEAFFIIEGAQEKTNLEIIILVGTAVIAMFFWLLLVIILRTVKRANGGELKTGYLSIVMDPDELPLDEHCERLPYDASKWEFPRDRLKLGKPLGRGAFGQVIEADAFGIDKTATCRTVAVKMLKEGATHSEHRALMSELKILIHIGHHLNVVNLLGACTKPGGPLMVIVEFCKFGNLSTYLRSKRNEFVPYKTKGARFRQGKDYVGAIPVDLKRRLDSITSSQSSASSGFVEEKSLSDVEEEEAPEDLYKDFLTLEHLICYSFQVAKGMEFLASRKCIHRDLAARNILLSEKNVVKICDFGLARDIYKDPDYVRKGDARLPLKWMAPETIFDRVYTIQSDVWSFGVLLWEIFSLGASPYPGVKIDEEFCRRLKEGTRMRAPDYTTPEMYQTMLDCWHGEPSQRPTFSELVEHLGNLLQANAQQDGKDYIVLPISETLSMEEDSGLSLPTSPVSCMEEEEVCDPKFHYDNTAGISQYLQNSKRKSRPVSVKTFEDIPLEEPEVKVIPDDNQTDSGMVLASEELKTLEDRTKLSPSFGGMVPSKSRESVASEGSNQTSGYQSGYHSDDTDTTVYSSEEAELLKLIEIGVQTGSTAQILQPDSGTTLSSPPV

Compound: Cc1nc(N)sc1-c1ccnc(Nc2cccc([N+](=O)[O-])c2)n1
- mortality at 24 h, 1.5 µM [1]: 100%
- Activity (Danio rerio [2]): Toxic
- Activity (Danio rerio [3]): Toxic
- Activity (Danio rerio [4]): Toxic
- Activity (Danio rerio [5]): Non-Toxic
- Activity (Danio rerio [6]): Toxic

Compound: COC(=O)c1cccc(-c2cnc3[nH]cc(-c4ccncc4)c3c2)c1
- Activity [7]: 13%
- IC50 [8]: 140 nM
- Activity [9]: 1.8%
- Activity [10]: 85%
- Activity [11]: 79.4%
- Activity [12]: 58.5%
- Activity [13]: 78.9%
- solubility [14]: 30.9 µM (≈ 10.2 µg/mL)
- solubility [15]: 34 µM (≈ 11.2 µg/mL)
- remaining at 48 h [16]: 88%
- Activity (Danio rerio [17]): Non-Toxic
- Activity (Danio rerio [18]): Toxic
- Activity (Danio rerio [19]): Toxic
